Measurements reported in ChEMBL document CHEMBL4043151, “Synthesis and biological evaluation of Aspergillomarasmine A derivatives as novel NDM-1 inhibitor to overcome antibiotics resistance” (Bioorg Med Chem, 2017).
In brackets after ≈: the same amount, converted by molar mass.

What was measured:
[1] = Inhibition of NDM1 (unknown origin) pre-incubated for 10 mins before nitrocefin substrate addition
[2] = test system: Klebsiella pneumoniae ATCC BAA-2146; assay: Inhibition of NDM1 in Klebsiella pneumoniae ATCC BAA-2146 assessed as rescue concentration needed to fully regain activity of meropenem at clinical breakpoint (2.5 uM) by cell-based synergy screening assay
[3] = test system: Klebsiella pneumoniae ATCC BAA-2146; assay: Inhibition of NDM1 in Klebsiella pneumoniae ATCC BAA-2146 assessed as potentiation of meropenem-induced microbial growth inhibition by cell-based synergy screening assay
[4] = test system: Klebsiella pneumoniae ATCC BAA-2146; assay: Inhibition of NDM1 in Klebsiella pneumoniae ATCC BAA-2146 assessed as potentiation of meropenem-induced microbial growth inhibition by measuring compound MIC by cell-based synergy screening assay
Klebsiella pneumoniae = assay: Growth inhibition of Klebsiella pneumoniae ATCC BAA-2146
[5] = test system: Klebsiella pneumoniae ATCC BAA-2146; assay: Inhibition of NDM1 in Klebsiella pneumoniae ATCC BAA-2146 assessed as potentiation of meropenem-induced microbial growth inhibition by measuring meropenem MIC by cell-based synergy screening assay (Rvb (meropenem MIC alone) = 2 microg/ml)
[6] = test system: Klebsiella pneumoniae ATCC BAA-2146; assay: Inhibition of NDM1 in Klebsiella pneumoniae ATCC BAA-2146 assessed as potentiation of meropenem-induced microbial growth inhibition by measuring meropenem MIC by cell-based synergy screening assay (Rvb (meropenem MIC alone) = 16.25 microg/ml)
[7] = test system: Klebsiella pneumoniae ATCC BAA-2146; assay: Inhibition of NDM1 in Klebsiella pneumoniae ATCC BAA-2146 assessed as potentiation of meropenem-induced microbial growth inhibition by measuring meropenem MIC by cell-based synergy screening assay (Rvb (meropenem MIC alone) = 8 microg/ml)
[8] = test system: Klebsiella pneumoniae ATCC BAA-2146; assay: Inhibition of NDM1 in Klebsiella pneumoniae ATCC BAA-2146 assessed as potentiation of meropenem-induced microbial growth inhibition by measuring meropenem MIC by cell-based synergy screening assay (Rvb (meropenem MIC alone) = 32.5 microg/ml)
[9] = test system: Klebsiella pneumoniae ATCC BAA-2146; assay: Inhibition of NDM1 in Klebsiella pneumoniae ATCC BAA-2146 assessed as potentiation of meropenem-induced microbial growth inhibition by measuring meropenem MIC by cell-based synergy screening assay (Rvb (meropenem MIC alone) = 65 microg/ml)

Structure (SMILES) | IC50 ([1]; read-out: IC50) [µM] | MIC [4] [µg/mL] | MIC [5] [µg/mL] | MIC [6] [µg/mL] | MIC [7] [µg/mL] | MIC [8] [µg/mL] | MIC [9] [µg/mL] | IC50 [1] | Activity [2] [µM] | fractional inhibitory concentration index (FICI) [3] | MIC (Klebsiella pneumoniae) [µg/mL]
N[C@@H](CN[C@@H](CN[C@@H](CC(=O)O)C(=O)O)C(=O)O)C(=O)O | 7 | > 250 | 65 |  |  |  |  |  | 25 | < 0.28 | 62.5 (≈ 203 µM)
N[C@H](CN[C@@H](CN[C@@H](CC(=O)O)C(=O)O)C(=O)O)C(=O)O | 9.3 | > 250 |  | 65 |  |  |  |  | 50 | < 0.5 | 62.5 (≈ 203 µM)
N[C@@H](CN[C@@H](CN1CCC[C@@H]1C(=O)O)C(=O)O)C(=O)O | 9 | > 406 |  |  |  | 65 |  |  | > 100 | < 1.5 | 406 (≈ 1400 µM)
COC(=O)C[C@H](NC[C@H](NC[C@H](N)C(=O)O)C(=O)O)C(=O)OC |  | > 298 |  |  |  |  | 65 | Not Active | > 100 | 2 | > 298
COC(=O)[C@H](CN[C@@H](CC(=O)O)C(=O)O)NC[C@H](N)C(=O)OC | 17.2 | > 298 |  |  |  |  | 65 |  | > 100 | 2 | > 298

Second part, led by results:

IC50 ([1]; read-out: IC50) [µM] | MIC [4] [µg/mL] | MIC [5] [µg/mL] | MIC [6] [µg/mL] | MIC [7] [µg/mL] | MIC [8] [µg/mL] | MIC [9] [µg/mL] | IC50 [1] | Structure (SMILES) | Activity [2] [µM] | fractional inhibitory concentration index (FICI) [3] | MIC (Klebsiella pneumoniae) [µg/mL]
10.4 | > 250 |  |  | 65 |  |  |  | C[C@@H](CN[C@@H](CN[C@@H](CC(=O)O)C(=O)O)C(=O)O)C(=O)O | 50 | < 0.62 | 125 (≈ 408 µM)
22.1 | > 250 |  |  |  | 65 |  |  | C[C@H](NC[C@H](NC[C@H](N)C(=O)O)C(=O)O)C(=O)O | > 100 | < 1.5 | 250 (≈ 950 µM)
10.4 | > 250 |  |  |  | 65 |  |  | N[C@@H](CN[C@H](CN[C@@H](CC(=O)O)C(=O)O)C(=O)O)C(=O)O | 100 | < 1 | 125 (≈ 407 µM)
94 | > 250 |  |  |  | 65 |  |  | C[C@H](CC(=O)O)NC[C@H](NC[C@H](N)C(=O)O)C(=O)O | > 100 | < 1 | 125 (≈ 451 µM)
12.8 | > 280 |  |  |  |  | 65 |  | N[C@@H](CN[C@@H](CN1CCC[C@H]1C(=O)O)C(=O)O)C(=O)O | > 100 | 2 | > 280
8.1 | > 250 |  |  | 65 |  |  |  | N[C@H](CN[C@H](CN[C@@H](CC(=O)O)C(=O)O)C(=O)O)C(=O)O | 50 | < 0.62 | 125 (≈ 407 µM)
